{
  "source": "patent US20240382556A1",
  "about": "“METHODS AND COMPOSITIONS FOR THE TREATMENT OF ALCOHOL DEPENDENCE” (Duke University, priority 2023, published 2024)",
  "key": {"Adult male C57/B16J mice": {"system": "Adult male C57/B16J mice", "assay": "Drinking in the Dark (DID) mouse model of binge drinking behavior", "assay_type": "in vivo", "procedure": "To measure binge drinking behavior, experiments were conducted that used the Drinking in the Dark (DID) model as previously published (see, Thiele T E, Crabbe J C, Boehm S L, 2nd (2014): “Drinking in the Dark” (DID): a simple mouse model of binge-like alcohol intake. Curr Protoc Neurosci. 68: 9 49 41-49 49 12). Adult male C57/B16J mice on reverse light-dark cycle had water replaced with alcohol three hours into the dark cycle. On days 1-3 of each week (Mon-Wed), mice received 20% alcohol for 2 hrs and on day 4 (Thur) received for 4 hours.\nMice were treated with Rapastinel at dose of 30 mg/kg or saline via intraperitoneal injection (i.p.) 30 minutes prior to alcohol exposure on days 1-4 of cycle either during first cycle of DID or after first undergoing DID for 5 weeks prior to treatment on week 6 (see, FIG. 1)."}, "animal models": {"system": "animal models", "conditions": "unlike ketamine, Moskal et al. 2017; cited from earlier work"}, "[1]": {"system": "preclinical rodent models", "conditions": "previously shown; cited from earlier work"}},
  "note": "Residues, ends and D or L forms follow the SMILES beside them.",
  "data": [
    {"smiles": "C[C@@H](O)[C@H](N)C(=O)N1CCC[C@H]1C(=O)N1CCC[C@H]1C(=O)N[C@H](C(N)=O)[C@@H](C)O", "note": "[Rapastinel, L-threonyl-L-prolyl-L-prolyl-L-threoninamide] (H-TPPT-NH2)", "values": [
      {"measurement": "alcohol consumption (daily and total) compared to saline control", "setting": "Adult male C57/B16J mice; alcohol naïve mice, 1 cycle of DID, daily i.p. injection of 30 mg/kg prior to presentation of alcohol", "result": "no effect"},
      {"measurement": "Total average weekly alcohol consumption, week 6 with treatment in comparison to weeks 1-5", "setting": "Adult male C57/B16J mice; mice after 5 weeks of DID, 30 mg/kg i.p. 30 minutes prior to alcohol on days 1-4 of week 6, with and without removal of outliers (>90%)", "result": "reduced alcohol consumption"},
      {"measurement": "negative side effects during treatment", "setting": "animal models", "result": "has not been shown to produce any negative side effects"},
      {"measurement": "cravings for opiates", "setting": "[1]", "result": "effective in reducing cravings for opiates"}
    ]}
  ]
}
